Measurements: US20130251644A1, “Cyclodextrin-Based Microemulsions, and Dermatological Uses Thereof” (PRECISION DERMATOLOGY, INC., priority 2012, published 2013)

Tests used:
[1] = Solubility/dispersibility of retinol in the Labrasol-HPGCD-water systems and in water; type: physicochemical
Description: Microemulsion preparation: Any two components (examples: Labrasol®-water, HPXCD-water, or Labrasol®-HPXCD) were mixed (in different ratios) in different scintillation vials and then the third component was titrated to each vial until a clear-to-turbid or turbid-to-clear transition occurred (in simple situations). Finally wt % percentages data for each component (Labrasol®, water, and cyclodextrin) were plotted to construct the ternary phase diagram.
Cyclodextrin used: hydroxypropyl-X-cyclodextrin (X=alpha, beta, or gamma).
Any two components (examples: Labrasol®-water, cyclodextrin-water, or Labrasol®-HPBCD) were mixed (in different ratios) in different scintillation vials and then the third component was titrated to each vial until a clear-to-turbid or turbid-to-clear transition occurred (in simple situations). Finally wt % percentages data for each component (Labrosol, water, and cyclodextrin) were plotted to construct the ternary phase diagram.

[2] = cited from earlier work

CC1=C(/C=C/C(C)=C/C=C/C(C)=C/CO)C(C)(C)CCC1 [solid retinol, Retinol]
amount of retinol that can be incorporated into the cyclodextrin-based microemulsions ([1]; cyclodextrin-based microemulsion systems): greater than 1.0 wt %
miscibility in Labrasol®-HPGCD-water microemulsion system ([1]; final retinol concentration 1.2%, clear transparent system (vials 8 and 1, FIG. 4(b), 4(c))): complete miscibility
miscibility in water [2]: immiscible in water
